In patent US20120239131A1, “METHODS AND APPARATUS FOR TREATMENT OF ANEURYSMAL TISSUE” (Medtronic Vascular, Inc., priority 2011, published 2012):

How the values were obtained:
Assay type in all cases: in vivo, ApoE−/− mice
MAPK8 = assay: Aortic mural gene expression, RT-PCR (TLDA); details: fold change over ApoE−/− control; aorta, 28 days Ang II infusion
Experimental: (§1) ApoE−/− mice used in this study were divided into different pretreatment groups: 1) Fluvastatin-MF; 2) Doxycycline-MD; 3) Irbesartan-MI; 4) Telmisartan-MT; 5) Control (water) and fed medicated chow or medicated drinking water 1 week prior to pump implantation. AngII (1000 ng·kg^−1 of body weight·min^−1) was infused subcutaneously via Alzet mini-osmotic pumps for 28 days. All mice were maintained on the medicated chow (MI & MT) or medicated drinking water (MF & MD) treatments which were delivered daily for a total of 28 days following pump implantation.
(§2) In order to determine the effect of the various treatments on the progressive enlargement of the experimental AAAs the mice were followed with high frequency trans-abdominal ultrasound. Maximum aortic diameter was measured and recorded prior to pump implantation and then at 3, 7, 14, 21, and 28 days. All mice were sacrificed 28 days after pump implantation. Aortae were harvested and subjected to either histological analysis (Elastic Masson trichome, MAC2, CD31 and TUNEL staining) and analysis of mural gene expression. Plasma drug concentrations of experimental compounds were quantified on the day of sacrifice using high performance liquid chromatography (HPLC).
(§3) Total RNA was extracted from homogenized aortas using the Qiazol lysis reagent and RNeasy Lipid Tissue Mini kit. DNAse treatment was included in the procedure. RNA concentration was determined utilizing the Quant iT RNA assay kit. Complimentary deoxyribonucleic acid (cDNA) was synthesized from 1 μg RNA using High reverse cDNA transcription kit. Briefly the reaction tubes containing RNA, reverse transcriptase, buffer, RNAse inhibitor, and nuclease free water were incubated at 25° C. for 10 minutes to allow annealing. Reverse transcription was performed at 37° C. for 120 min, followed by a 5 sec incubation at 85° C. to inactivate the reverse transcriptase enzyme. The cDNA samples were cooled at 4° C. and stored at −80° C. until further use.
(§4) Real time PCR was performed using a 384-well Taqman low density array (TLDA) card. Each sample specific PCR mix contained 50 ng of total RNA converted to cDNA. The PCR reaction for Taqman assays contained 50 μl Master Mix (Taqman Universal PCR Master Mix,) and 50 ul of cDNA and RNAase free water. Assays were performed to include appropriate controls (no template control). The RT-PCR protocol included an initial step of 50° C. (2 minutes) […], denaturation by a hot start at 95° C. for 10 min, followed by 40 cycles of a 2 step program (denaturation at 95° C. for 15 secs for primer annealing/extension at 60° C. for 1 min). Fluorescence data was collected at 60° C. Fluorescence was quantified with ABI PRISM 7900HT Sequence Detection System. To verify amplification of a specific target cDNA, data generated was analyzed using SDS 2.2.3 software (Sequence Detection System Software, Applied Biosystems). For all amplification plots, the baseline data were set with the automatic CT function available with SDS 2.2.3 calculating the optimal baseline range and threshold value by using the AutoCT algorithm. According to the manufacturer's instruction, a CT value of ≧39 corresponds to nonspecific amplification marking the limits of detection. For endogenous control GAPDH was normalized to B2M. For relative quantification (RQ), pooled ApoE−/− control was used as the calibrator (with expression equal to 1).

CCR5 = assay: Aortic mural gene expression, RT-PCR (TLDA); details: fold change over ApoE−/− control; aorta, 28 days Ang II infusion
Experimental: as §1, §2, §3, §4

LOX = assay: Aortic mural gene expression, RT-PCR (TLDA); details: fold change over ApoE−/− control; aorta, 28 days Ang II infusion
Experimental: as §1, §2, §3, §4

TIMP2 = assay: Aortic mural gene expression, RT-PCR (TLDA); details: fold change over ApoE−/− control; aorta, 28 days Ang II infusion
Experimental: as §1, §2, §3, §4

TNF-α = assay: Aortic mural gene expression, RT-PCR (TLDA); details: fold change over ApoE−/− control; aorta, 28 days Ang II infusion
Experimental: as §1, §2, §3, §4

Runx3 = assay: Aortic mural gene expression, RT-PCR (TLDA); details: fold change over ApoE−/− control; aorta, 28 days Ang II infusion
Experimental: as §1, §2, §3, §4

Vav1 = assay: Aortic mural gene expression, RT-PCR (TLDA); details: fold change over ApoE−/− control; aorta, 28 days Ang II infusion
Experimental: as §1, §2, §3, §4

ITGB2 = assay: Aortic mural gene expression, RT-PCR (TLDA); details: fold change over ApoE−/− control; aorta, 28 days Ang II infusion
Experimental: as §1, §2, §3, §4

CCL2 = assay: Aortic mural gene expression, RT-PCR (TLDA); details: fold change over ApoE−/− control; aorta, 28 days Ang II infusion
Experimental: as §1, §2, §3, §4

IL-7 = assay: Aortic mural gene expression, RT-PCR (TLDA); details: fold change over ApoE−/− control; aorta, 28 days Ang II infusion
Experimental: as §1, §2, §3, §4

CCR2 = assay: Aortic mural gene expression, RT-PCR (TLDA); details: fold change over ApoE−/− control; aorta, 28 days Ang II infusion
Experimental: as §1, §2, §3, §4

HMOX 1 = assay: Aortic mural gene expression, RT-PCR (TLDA); details: fold change over ApoE−/− control; aorta, 28 days Ang II infusion
Experimental: as §1, §2, §3, §4

Tgfβ1 = assay: Aortic mural gene expression, RT-PCR (TLDA); details: fold change over ApoE−/− control; aorta, 28 days Ang II infusion
Experimental: as §1, §2, §3, §4

Cathepsin B = assay: Aortic mural gene expression, RT-PCR (TLDA); details: fold change over ApoE−/− control; aorta, 28 days Ang II infusion
Experimental: as §1, §2, §3, §4

MMP-12 = assay: Aortic mural gene expression, RT-PCR (TLDA); details: fold change over ApoE−/− control; aorta, 28 days Ang II infusion
Experimental: as §1, §2, §3, §4

MMP-8 = assay: Aortic mural gene expression, RT-PCR (TLDA); details: fold change over ApoE−/− control; aorta, 28 days Ang II infusion
Experimental: as §1, §2, §3, §4

Osteopontin = assay: Aortic mural gene expression, RT-PCR (TLDA); details: fold change over ApoE−/− control; aorta, 28 days Ang II infusion
Experimental: as §1, §2, §3, §4

Rac2 = assay: Aortic mural gene expression, RT-PCR (TLDA); details: fold change over ApoE−/− control; aorta, 28 days Ang II infusion
Experimental: as §1, §2, §3, §4

Cybb = assay: Aortic mural gene expression, RT-PCR (TLDA); details: fold change over ApoE−/− control; aorta, 28 days Ang II infusion
Experimental: as §1, §2, §3, §4

Cathepsin S = assay: Aortic mural gene expression, RT-PCR (TLDA); details: fold change over ApoE−/− control; aorta, 28 days Ang II infusion
Experimental: as §1, §2, §3, §4

Fibronectin -1 = assay: Aortic mural gene expression, RT-PCR (TLDA); details: fold change over ApoE−/− control; aorta, 28 days Ang II infusion
Experimental: as §1, §2, §3, §4

CXCR4 = assay: Aortic mural gene expression, RT-PCR (TLDA); details: fold change over ApoE−/− control; aorta, 28 days Ang II infusion
Experimental: as §1, §2, §3, §4

[1] = test system: genes involved in the pathophysiology of AAA; assay: Drug inhibition effect on differentially expressed genes, overall; details: for Down-regulation of genes involved in the pathophysiology of AAA: ApoE−/− + Ang II AAA model, summary of Table 2; for Total Score: sum of heat map grades over 25 genes, ApoE−/− + Ang II group scored 55
Experimental: as §1, §2, §3, §4

aneurysm = assay: Aneurysm incidence over time, ApoE−/−+Ang II AAA model; details: aneurysm = dissection or more than 50% increase in diameter, versus doxycycline and saline control
Experimental: as §1, §2
Aneurysm was defined as either the presence of dissection or more than 50% increase in diameter.

SMILES | MAPK8 expression (MAPK8) | CCR5 expression (CCR5) | LOX expression (LOX) | TIMP2 expression (TIMP2) | TNF-α expression (TNF-α) | Runx3 expression (Runx3) | Vav1 expression (Vav1) | ITGB2 expression (ITGB2) | CCL2 expression (CCL2) | IL-7 expression (IL-7) | CCR2 expression (CCR2) | HMOX 1 expression (HMOX 1) | Tgfβ1 expression (Tgfβ1) | Cathepsin B expression (Cathepsin B) | MMP-12 expression (MMP-12) | MMP-8 expression (MMP-8) | Osteopontin expression (Osteopontin) | Rac2 expression (Rac2) | Cybb expression (Cybb) | Cathepsin S expression (Cathepsin S) | other results
CC(C)n1c(/C=C/C(O)CC(O)CC(=O)O)c(-c2ccc(F)cc2)c2ccccc21 (stereo not drawn) [Fluvastatin] | − (0 to 1 = −) | +++ (3.1 to 10 = +++) | − (0 to 1 = −) | − (0 to 1 = −) | ++ (1.51 to 3 = ++) | ++ (1.51 to 3 = ++) | ++ (1.51 to 3 = ++) | ++ (1.51 to 3 = ++) | ++ (1.51 to 3 = ++) | − (0 to 1 = −) | +++ (3.1 to 10 = +++) | +++ (3.1 to 10 = +++) | +++ (3.1 to 10 = +++) | + (1.1 to 1.5 = +) | +++ (3.1 to 10 = +++) | ++++ (>10.1 = ++++) | ++++ (>10.1 = ++++) | + (1.1 to 1.5 = +) | ++ (1.51 to 3 = ++) | +++ (3.1 to 10 = +++) | Fibronectin -1 expression (Fibronectin -1): − (0 to 1 = −); CXCR4 expression (CXCR4): +++ (3.1 to 10 = +++); Down-regulation of genes involved in the pathophysiology of AAA [1]: down-regulating the expression of genes; Total Score [1]: 45; Inhibition of aneurysm development (aneurysm incidence) (aneurysm): effective in inhibiting aneurysm development
CCCc1nc2c(C)cc(-c3nc4ccccc4n3C)cc2n1Cc1ccc(-c2ccccc2C(=O)O)cc1 [Telmisartan] | ++ (1.51 to 3 = ++) | − (0 to 1 = −) | − (0 to 1 = −) | − (0 to 1 = −) | − (0 to 1 = −) | − (0 to 1 = −) | − (0 to 1 = −) | − (0 to 1 = −) | − (0 to 1 = −) | + (1.1 to 1.5 = +) | − (0 to 1 = −) | − (0 to 1 = −) | − (0 to 1 = −) | − (0 to 1 = −) | − (0 to 1 = −) | − (0 to 1 = −) | − (0 to 1 = −) | − (0 to 1 = −) | − (0 to 1 = −) | − (0 to 1 = −) | Fibronectin -1 expression (Fibronectin -1): − (0 to 1 = −); CXCR4 expression (CXCR4): +++ (3.1 to 10 = +++); Down-regulation of genes involved in the pathophysiology of AAA [1]: down-regulating the expression of genes; Total Score [1]: 6; Inhibition of aneurysm development (aneurysm incidence) (aneurysm): inhibited aneurysm development well; Inhibition of aneurysm development (aneurysm incidence) (aneurysm; listed as telmisartan): effective in inhibiting aneurysm development
